Reference: patent EP0488301A1, “New benzopyran compounds with pharmacological activity” (J. URIACH & CIA. S.A., priority 1990, dated 1992)
Like-named read-outs stand apart in the source and are kept apart here.

Experiments:
[1] = system: portal vein isolated from rat; assay: Test 1: Inhibition of the contraction induced by noradrenaline in portal vein isolated from rat; format: cell-based; details: contraction induced by noradrenaline (3µM), compounds incubated for 30 minutes, 50% inhibition versus the basal response, read-out: IC₅₀
Protocol: Test 1: Inhibition of the contraction induced by noradrenaline in portal vein isolated from rat.
Portal vein was extracted from adult male rats (between 200 and 250 g of body weight), which had been stunned by a blow in the head. Portal vein was installed into an isolated organ bath (Letica) containing a physiological saline solution (Hamilton et al., Br. J. Pharmacol., 1986, 88, 103-111) at 37 °C and a gas bubbler (5% CO₂ and 95% O₂). Contractions were induced by noradrenaline (3µM) and were reverted after thoroughly washing with physiological saline solution. Portal vein contraction was measured with an isometric force transducer and with an initial tension of 1 g. After two contractions with noradrenaline, performed in order to measure the tissue's basal response, the tested compounds were incubated for 30 minutes and a new contraction was induced. The concentration that produces a 50% inhibition (IC₅₀) versus the basal response was calculated.

[2] = system: Spontaneously hypertense rats; assay: Test 2: Lowering of the arterial pressure in conscious hypertense rats; format: in vivo, rat; details: dose which produces a decrease of 30 mm Hg of the systolic arterial pressure, 3 doses and 3 animals per dose; for ED (30 mmHg decrease): Rattus norvegicus, po, read-out: ED₃₀; for ED₃₀: p.o.
Protocol: Test 2: Lowering of the arterial pressure in conscious hypertense rats.
Spontaneously hypertense rats (between 200 and 250 g of body weight) of more than 8 weeks of age have been used. Diastolic and systolic arterial pressure of the rat was measured at the caudal artery using a special sphygnomanometer (Letica 5007 and 5007/4) attached to the animal's tail. To ensure rapid and reliable data, animals were placed in a heating plate at 37°C, with the aim to produce a vasodilatation that ensured a better fixation of the rat tail to the transducer chamber. During the experiment, rats are conscious and fixed to a clamp. The tested products were administered orally. Arterial pressure was measured every 30 minutes and 10 minutes before the administration of the tested compound. The ED₃₀ (dose which produces a decrease of 30 mm Hg of the systolic arterial pressure) was calculated for each compound, using 3 doses and 3 animals per dose.

[3] = system: trachea isolated from guinea pig; assay: Test 3: Direct relaxation of the trachea isolated from guinea pig; format: cell-based; details: Cavia porcellus, 50% of the maximum relaxation (relaxation induced by isoproterenol at 1x10⁻⁶ M), cumulative addition, read-out: EC₅₀
Protocol: Test 3 -Direct relaxation of the trachea isolated from guinea pig.
This test was performed according to the experimental model described by Emmerson, J. and Mackay, D. (J. Pharm. Pharmacol.,1979,31, 798). Tracheas were extracted from male guinea pigs of 400 g of body weight, which had been stunned by a blow in the head. Then, tracheas were cut in zigzag and placed into an isolated organ bath (Letica) containing Krebs-Henseleit solution at 37°C and were bubbled with carbogen (95% O₂ and 5% CO₂). The relaxation of the trachea was measured using an isometric force transducer. The basal tension was 0.5 g. The tested compounds were accumulatively added to the bath and the effective concentration which produces a 50% of the maximum relaxation (EC₅₀) was calculated.

Row | SMILES | IC50 ([1]; Rattus norvegicus, 0.5 h) [nM] | EC50 [3] [nM] | IC50 [1] [nM] | ED (30 mmHg decrease) [2] [mg/kg] | ED₃₀ [2] [mg/kg]
1 | CC1(C)Oc2ccc(C#N)cc2[C@@H](NC(=O)[C@@H]2CCCN2C(=O)OCc2ccccc2)[C@@H]1O (mixture of isomers) [Compound 35, Trans 3,4-dihydro-2,2-dimethyl-3-hydroxy-4-[(2S)-1-benzyloxycarbonyl-2-pyrrolidinylcarbonylamino]-2H-1-benzopyran-6-carbonitrile] | – | 900 | – | 0.05 | –
2 | COc1cccc(COC(=O)N2CCC[C@H]2C(=O)N[C@@H]2c3cc(C#N)ccc3OC(C)(C)[C@H]2O)c1 (mixture of isomers) [Compound 58, Trans 3,4-dihydro-2,2-dimethyl-3-hydroxy-4-[(2S)-1-[(3-methoxyphenyl)methyloxycarbonyl]-2-pyrrolidinylcarbonylamino)-2H-1-benzopyran-6-carbonitrile] | 500 | – | – | < 1 | –
3 | CC1(C)Oc2ccc(C#N)cc2[C@@H](NC(=O)[C@@H]2CCCN2C(=O)OCc2cccc(Cl)c2)[C@@H]1O (mixture of isomers) [Compound 60, Trans 3,4-dihydro-2,2-dimethyl-3-hydroxy-4-[(2S)-1-[(3-chlorophenyl)methyloxycarbonyl]-2-pyrrolidinylcarbonylamino)-2H-1-benzopyran-6-carbonitrile] | 200 | 100 | – | < 0.5 | –
4 | CC(C)(C)OC(=O)N1CCCCC1C(=O)N[C@@H]1c2cc(C#N)ccc2OC(C)(C)[C@H]1O (relative stereo) [Compound 13, Trans 3,4-dihydro-2,2-dimethyl-3-hydroxy-4-(1-tert-butoxycarbonyl-2-piperidinylcarbonylamino)-2H-1-benzopyran-6-carbonitrile] | 31000 | 6000 | – | 0.18 | –
5 | CC(C)(C)OC(=O)N1CCC[C@H]1C(=O)N[C@H]1c2cc(C#N)ccc2OC(C)(C)[C@@H]1O [28(A), Trans (3R,4S)-3,4-dihydro-2,2-dimethyl-3-hydroxy-4-[(2S)-1-tert-butoxycarbonyl-2-pyrrolidinylcarbonylamino]-2H-1-benzopyran-6-carbonitrile] | > 10000 | – | – | – | –
6 | CC(C)(C)OC(=O)N1CCC[C@H]1C(=O)N[C@@H]1c2cc(C#N)ccc2OC(C)(C)[C@H]1O [28(B), Trans (3S,4R)-3,4-dihydro-2,2-dimethyl-3-hydroxy-4-[(2S)-1-tert-butoxycarbonyl-2-pyrrolidinylcarbonylamino]-2H-1-benzopyran-6-carbonitrile] | 2600 | 4800 | – | – | 1.0
7 | CC1(C)Oc2ccc(C#N)cc2[C@H](NC(=O)[C@@H]2CCCN2C(=O)OCc2ccccc2)[C@H]1O [35(A), Trans (3R,4S)-3,4-dihydro-2,2-dimethyl-3-hydroxy-4-[(2S)-1-benzyloxy-carbonyl-2-pyrrolidinylcarbonylamino]-2H-1-benzopyran-6-carbonitrile] | 2400 | – | – | – | –

Now from value to compound, other results behind:

Row | IC50 ([1]; Rattus norvegicus, 0.5 h) [nM] | EC50 [3] [nM] | IC50 [1] [nM] | SMILES | ED (30 mmHg decrease) [2] [mg/kg] | ED₃₀ [2] [mg/kg]
8 | 2500 | 2500 | – | CC1(C)Oc2ccc(C#N)cc2[C@@H](NC(=O)[C@@H]2CCCN2C(=O)Oc2ccccc2)[C@@H]1O (mixture of isomers) [Compound 34, Trans 3,4-dihydro-2,2-dimethyl-3-hydroxy-4-[(2S)-1-phenoxycarbonyl-2-pyrrolidinylcarbonylamino]-2H-1-benzopyran-6-carbonitrile] | 3 | –
9 | 3100 | – | – | CC1(C)Oc2ccc(C#N)cc2[C@@H](NC(=S)N2CCCC2)[C@@H]1O (relative stereo) [Compound 1, Trans 3,4-dihydro-2,2-dimethyl-3-hydroxy-4-(1-pyrrolidinylthiocarbonylamino)-2H-1-benzopyran-6-carbonitrile] | > 3 | –
10 | 4200 | 800 | – | CC1(C)Oc2ccc(C#N)cc2[C@@H](NC(=S)N2CCCCC2)[C@@H]1O (relative stereo) [Compound 3, Trans 3,4-dihydro-2,2-dimethyl-3-hydroxy-4-(1-piperidinylthiocarbonylamino)-2H-1-benzopyran-6-carbonitrile] | 0.5 | –
11 | 5300 | 1300 | – | CN1CCN(C(=S)N[C@@H]2c3cc(C#N)ccc3OC(C)(C)[C@H]2O)CC1 (relative stereo) [Compound 7, Trans 3,4-dihydro-2,2-dimethyl-3-hydroxy-4-(4-methyl-1-piperazinylthiocarbonylamino)-2H-1-benzopyran-6-carbonitrile] | 0.17 | –
12 | 800 | 1000 | – | CC1(C)Oc2ccc(C#N)cc2[C@@H](NC(=O)C2CCCCN2C(=O)Oc2ccccc2)[C@@H]1O (relative stereo) [Compound 18, Trans 3,4-dihydro-2,2-dimethyl-3-hydroxy-4-(1-phenyloxycarbonyl-2-piperidinylcarbonylamino)-2H-1-benzopyran-6-carbonitrile] | 0.7 | –
13 | 800 | 4500 | – | CC1(C)Oc2ccc(C#N)cc2[C@@H](NC(=O)C2CCCCN2C(=O)OCc2ccccc2)[C@@H]1O (relative stereo) [Compound 19, Trans 3,4-dihydro-2,2-dimethyl-3-hydroxy-4-(1-benzyloxycarbonyl-2-piperidinylcarbonylamino)-2H-1-benzopyran-6-carbonitrile] | 0.7 | –
14 | 3500 | 400 | – | CC1(C)Oc2ccc(C#N)cc2[C@@H](NC(=O)C2CCCCC2)[C@@H]1O (relative stereo) [Compound 45, Trans 4-cyclohexylcarbonylamino-3,4-dihydro-2,2-dimethyl-3-hydroxy-2H-1-benzopyran-6-carbonitrile] | 0.65 | –
15 | – | – | > 10000 | CC(C)COC(=O)N1CCC[C@H]1C(=O)N[C@@H]1c2cc(C#N)ccc2OC(C)(C)[C@H]1O (single isomer, unassigned) [33(A)] | – | 0.3
16 | – | 9100 | 300 | CC(C)COC(=O)N1CCC[C@H]1C(=O)N[C@@H]1c2cc(C#N)ccc2OC(C)(C)[C@H]1O (single isomer, unassigned) [33(B)] | – | <0.1
17 | 200 | – | – | CC1(C)Oc2ccc(C#N)cc2[C@@H](NC(=O)[C@@H]2CCCN2C(=O)OCc2ccccc2)[C@@H]1O [35(B), Trans (3S,4R)-3,4-dihydro-2,2-dimethyl-3-hydroxy-4-[(2S)-1-benzyloxy-carbonyl-2-pyrrolidinylcarbonylamino]-2H-1-benzopyran-6-carbonitrile] | – | –
